Test results taken from ChEMBL document CHEMBL1138810, “Studies of targeting and intracellular trafficking of an anti-androgen doxorubicin-formaldehyde conjugate in PC-3 prostate cancer cells bearing androgen receptor-GFP chimera” (J Med Chem, 2004).

target: T1, Androgen receptor (Homo sapiens, UniProt P10275); test: Inhibition of [3H]mibolerone binding to human Androgen receptor of PC3/AR Cell Lysate
T1 sequence (P10275 whole entry): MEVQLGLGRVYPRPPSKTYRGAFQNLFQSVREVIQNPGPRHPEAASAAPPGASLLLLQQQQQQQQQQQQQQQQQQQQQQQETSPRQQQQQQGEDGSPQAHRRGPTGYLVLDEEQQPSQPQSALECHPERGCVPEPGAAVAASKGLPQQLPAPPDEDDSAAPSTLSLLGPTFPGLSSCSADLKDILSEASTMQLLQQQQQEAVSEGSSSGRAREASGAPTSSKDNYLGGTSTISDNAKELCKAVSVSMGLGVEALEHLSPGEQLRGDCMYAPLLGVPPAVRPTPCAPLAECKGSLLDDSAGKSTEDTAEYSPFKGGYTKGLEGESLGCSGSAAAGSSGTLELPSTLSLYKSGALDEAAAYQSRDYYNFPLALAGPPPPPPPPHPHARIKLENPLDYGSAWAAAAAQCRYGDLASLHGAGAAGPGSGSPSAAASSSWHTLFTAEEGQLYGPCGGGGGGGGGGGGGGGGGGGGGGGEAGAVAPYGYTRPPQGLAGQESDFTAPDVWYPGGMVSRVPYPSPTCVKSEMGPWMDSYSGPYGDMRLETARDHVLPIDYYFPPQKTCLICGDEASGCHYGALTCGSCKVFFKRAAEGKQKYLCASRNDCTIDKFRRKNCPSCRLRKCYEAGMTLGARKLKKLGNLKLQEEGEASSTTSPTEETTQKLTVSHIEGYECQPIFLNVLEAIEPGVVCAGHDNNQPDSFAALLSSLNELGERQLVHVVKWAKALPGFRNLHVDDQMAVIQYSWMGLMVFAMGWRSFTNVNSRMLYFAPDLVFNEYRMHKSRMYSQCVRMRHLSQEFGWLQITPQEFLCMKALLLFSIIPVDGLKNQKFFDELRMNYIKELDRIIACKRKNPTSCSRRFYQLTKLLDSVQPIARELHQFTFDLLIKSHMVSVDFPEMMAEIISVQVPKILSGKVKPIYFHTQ

Row | IC50 [µM] | SMILES
1 | 0.063 | CCCC(=O)Oc1ccc(COCC#CCN2C(=O)N(c3ccc(C#N)c(C(F)(F)F)c3)C(=O)C2(C)C)cc1C(=O)NCN[C@H]1CC(OC2C[C@](O)(C(=O)CO)Cc3c(O)c4c(c(O)c32)C(=O)c2c(OC)cccc2C4=O)O[C@@H](C)[C@H]1O (some centres undefined)
2 | 0.332 | CC1(C)C(=O)N(c2ccc(C#N)c(C(F)(F)F)c2)C(=O)N1OCCOCCOCCCc1ccc(O)c(C(N)=O)c1
3 | 0.09 | COc1cccc2c1C(=O)c1c(O)c3c(c(O)c1C2=O)C[C@@](O)(C(=O)CO)CC3OC1C[C@H](NCNC(=O)c2cc(COCC#CCN3C(=O)N(c4ccc(C#N)c(C(F)(F)F)c4)C(=O)C3(C)C)ccc2O)[C@H](O)[C@H](C)O1 (some centres undefined)

Row | SMILES | IC50 [µM]
4 | CC1(C)C(=O)N(c2ccc(C#N)c(C(F)(F)F)c2)C(=O)N1OCC#CCCc1ccc(O)c(C(N)=O)c1 | 0.049
